How the values were obtained:
CHIKV DRDE-07 = assay: In vitro screening against CHIKV (CPE inhibition and MTT cell viability); type: cell-based, chikungunya virus; conditions: Table S1, CHIKV-infected Vero cells; for % Cell viability: 72 hpi, MTT assay; for CPE: arbitrary score of cytopathic effect at >48 hpi
Vero cells = assay: Cytotoxicity MTT assay in Vero cells (MNTD, CC50); type: cell-based, African green monkey; conditions: Table S1; Vero cells

Compound	% Cell viability (CHIKV DRDE-07) [%]	CPE (CHIKV DRDE-07)	MNTD (Vero cells) [µM]
O=C(NNC(=O)c1cccnc1)c1ccccc1 [DCR4, N'-benzoylnicotinohydrazide]	15	++++ (>60% (++++))	31.25
O=C(NNC(=O)c1ccccc1Cl)c1cccnc1 [DCR5, N'-(2-chlorobenzoyl)nicotinohydrazide]	13.49	++++ (>60% (++++))	31.25
O=C(NNC(=O)c1cccnc1)c1ccc(Cl)cc1 [DCR6, N'-(4-chlorobenzoyl)nicotinohydrazide]	16.98	++++ (>60% (++++))	31.25
CC(=O)NNC(=O)c1cccnc1 [DCR7, N'-acetylnicotinohydrazide]	20.31	++++ (>60% (++++))	62.5
O=C(CCl)NNC(=O)c1cccnc1 [DCR8, N'-(2-chloroacetyl)nicotinohydrazide]	13.8	++++ (>60% (++++))	31.25
O=C(NNC(=O)c1ccncc1)c1ccccc1 [DCR9, N'-benzoylisonicotinohydrazide]	9.92	++++ (>60% (++++))	31.25
O=C(NNC(=O)c1ccccc1Cl)c1ccncc1 [DCR10, N'-(2-chlorobenzoyl)isonicotinohydrazide]	21.19	++++ (>60% (++++))	31.25
O=C(NNC(=O)c1ccc(Cl)cc1)c1ccncc1 [DCR11, N'-(4-chlorobenzoyl)isonicotinohydrazide]	22.85	++++ (>60% (++++))	31.25
O=C(CCl)NNC(=O)c1ccncc1 [DCR12, N'-(2-chloroacetyl)isonicotinohydrazide]	16.34	++++ (>60% (++++))	31.25
CC(=O)NNC(=O)c1ccncc1 [DCR13, N'-acetylisonicotinohydrazide]	15.07	++++ (>60% (++++))	62.5
O=C(N/N=C/c1ccccc1)c1cccnc1 [DCR14, (E)-N'-benzylidenenicotinohydrazide]	22.93	++++ (>60% (++++))	31.25
Cc1ccccc1/C=N/NC(=O)c1cccnc1 [DCR15, (E)-N'-(2-methylbenzylidene)nicotinohydrazide]	14.76	++++ (>60% (++++))	31.25
Cc1ccc(/C=N/NC(=O)c2cccnc2)cc1 [DCR16, (E)-N'-(4-methylbenzylidene)nicotinohydrazide]	18.49	++++ (>60% (++++))	31.25
CCOc1ccc(/C=N/NC(=O)c2cccnc2)cc1OC [DCR17, (E)-N'-(4-ethoxy-3-methoxybenzylidene)nicotinohydrazide]	0.1	++++ (>60% (++++))	31.25
CCOc1cc(/C=N/NC(=O)c2cccnc2)ccc1O [DCR18, (E)-N'-(3-ethoxy-4-hydroxybenzylidene)nicotinohydrazide]	15.39	++++ (>60% (++++))	31.25
O=C(N/N=C/c1cccc([N+](=O)[O-])c1)c1cccnc1 [DCR19, (E)-N'-(3-nitrobenzylidene)nicotinohydrazide]	20.39	++++ (>60% (++++))	62.5
O=C(N/N=C/c1ccccc1[N+](=O)[O-])c1cccnc1 [DCR20, (E)-N'-(2-nitrobenzylidene)nicotinohydrazide]	22.69	++++ (>60% (++++))	31.25
O=C(N/N=C/c1ccco1)c1cccnc1 [DCR21, (E)-N'-(furan-2-ylmethylene)nicotinohydrazide]	0	++++ (>60% (++++))	62.5
O=C(N/N=C/c1cccc(Br)c1)c1cccnc1 [DCR22, (E)-N'-(3-bromobenzylidene)nicotinohydrazide]	19.28	++++ (>60% (++++))	15.6
O=C(N/N=C/c1ccccc1Br)c1cccnc1 [DCR23, (E)-N'-(2-bromobenzylidene)nicotinohydrazide]	28.01	++++ (>60% (++++))	15.6
O=C(N/N=C/c1ccc(Cl)cc1)c1cccnc1 [DCR25, (E)-N'-(4-chlorobenzylidene)nicotinohydrazide]	30.15	++++ (>60% (++++))	62.5

Compound	% Cell viability (CHIKV DRDE-07) [%]	CPE (CHIKV DRDE-07)	MNTD (Vero cells) [µM]
O=C(N/N=C/c1ccc(Cl)cc1Cl)c1cccnc1 [DCR26, (E)-N'-(2,4-dichlorobenzylidene)nicotinohydrazide]	26.11	++++ (>60% (++++))	31.25
COc1cc(/C=N/NC(=O)c2cccnc2)cc(OC)c1OC [DCR27, (E)-N'-(3,4,5-trimethoxybenzylidene)nicotinohydrazide]	21.26	++++ (>60% (++++))	31.25
O=C(O)c1ccc(/C=N/NC(=O)c2cccnc2)cc1 [DCR28, (E)-4-((2-nicotinoylhydrazono)methyl)benzoic acid]	15.63	++++ (>60% (++++))	62.5
Cc1ccccc1/C=N/NC(=O)c1ccncc1 [DCR30, (E)-N'-(2-methylbenzylidene)isonicotinohydrazide]	23.8	++++ (>60% (++++))	62.5
Cc1ccc(/C=N/NC(=O)c2ccncc2)cc1 [DCR31, (E)-N'-(4-methylbenzylidene)isonicotinohydrazide]	1.03	++++ (>60% (++++))	62.5
CCOc1ccc(/C=N/NC(=O)c2ccncc2)cc1OC [DCR32, (E)-N'-(4-ethoxy-3-methoxybenzylidene)isonicotinohydrazide]	6.03	++++ (>60% (++++))	31.25
CCOc1cc(/C=N/NC(=O)c2ccncc2)ccc1O [DCR33, (E)-N'-(3-ethoxy-4-hydroxybenzylidene)isonicotinohydrazide]	0	++++ (>60% (++++))	62.5
O=C(N/N=C/c1cccc([N+](=O)[O-])c1)c1ccncc1 [DCR34, (E)-N'-(3-nitrobenzylidene)isonicotinohydrazide]	6.42	++++ (>60% (++++))	62.5
O=C(N/N=C/c1ccccc1[N+](=O)[O-])c1ccncc1 [DCR35, (E)-N'-(2-nitrobenzylidene)isonicotinohydrazide]	9.84	++++ (>60% (++++))	62.5
O=C(N/N=C/c1ccco1)c1ccncc1 [DCR36, (E)-N'-(furan-2-ylmethylene)isonicotinohydrazide]	5	++++ (>60% (++++))	62.5
O=C(N/N=C/c1cccc(Br)c1)c1ccncc1 [DCR37, (E)-N'-(3-bromobenzylidene)isonicotinohydrazide]	14.36	++++ (>60% (++++))	31.25
O=C(N/N=C/c1ccccc1Br)c1ccncc1 [DCR38, (E)-N'-(2-bromobenzylidene)isonicotinohydrazide]	25.1	++++ (>60% (++++))	31.25
O=C(N/N=C/c1ccc(Cl)cc1)c1ccncc1 [DCR40, (E)-N'-(4-chlorobenzylidene)isonicotinohydrazide]	5.23	++++ (>60% (++++))	31.25
O=C(N/N=C/c1ccc(Cl)cc1Cl)c1ccncc1 [DCR41, (E)-N'-(2,4-dichlorobenzylidene)isonicotinohydrazide]	35.79	++++ (>60% (++++))	31.25
COc1cc(/C=N/NC(=O)c2ccncc2)cc(OC)c1OC [DCR42, (E)-N'-(3,4,5-trimethoxybenzylidene)isonicotinohydrazide]	12.22	++++ (>60% (++++))	31.25
O=C(O)c1ccc(/C=N/NC(=O)c2ccncc2)cc1 [DCR43, (E)-4-((2-isonicotinoylhydrazono)methyl)benzoic acid]	16.82	++++ (>60% (++++))	31.25
C/C(=N\NC(=O)c1ccncc1)c1ccccc1O [DCR44, (E)-N'-(1-(2-hydroxyphenyl)ethylidene)isonicotinohydrazide]	18.88	++++ (>60% (++++))	31.25
C/C(=N\NC(=O)c1cccnc1)c1ccc(O)cc1 [DCR45, (E)-N'-(1-(4-hydroxyphenyl)ethylidene)nicotinohydrazide]	15.55	++++ (>60% (++++))	31.25
C/C(=N\NC(=O)c1cccnc1)c1ccccc1N [DCR46, (E)-2-(1-(2-nicotinoylhydrazono)ethyl)benzenaminium]	27.31	++++ (>60% (++++))	31.25
C/C(=N\NC(=O)c1cccnc1)c1c(O)ccc2ccccc12 [DCR47, (E)-N'-(1-(2-hydroxynaphthalen-1-yl)ethylidene)nicotinohydrazide]	6.42	++++ (>60% (++++))	31.25
C#CCOC(=O)C1=C(C)NC(=O)NC1c1ccc([N+](=O)[O-])cc1 (centres unmarked) [DCR93, prop-2-yn-1-yl 6-methyl-4-(4-nitrophenyl)-2-oxo-1,2,3,4-tetrahydropyrimidine-5-carboxylate]	12.17	++++ (>60% (++++))	–

Source: PMC10674894 (Viruses, 2023)
